Experimental data: patent US10526418B2, “Modulators of ACYL-COA lysocardiolipin acyltransferase 1 (ALCAT1) and uses thereof” (priority 2012, dated 2020)

Columns and labels:
[1] = test system: MFN1 and MFN2 expression in C2C12 cells; assay: Western blot analysis of MFN1 and MFN2 expression in C2C12 cells stably expressing ALCAT1 or vector control, treated with H2O2; assay type: cell-based
Procedure: FIG. 7G: Western blot analysis of MFN1 and MFN2 expression in C2C12 cells stably expressing vector, ALCAT1, or ALCAT1 but were pretreated various doses (0, 1M, and 5M) of diphenyliodonium (DPI), an NADPH oxidase inhibitor, prior to treatment with 1.5 mM of H2O2.
The C2C12-A1 cells and vector control were treated with increasing doses of H2O2 as used in FIG. 7E, followed by analysis of MFN2 expression by western blot analysis.

[2] = test system: phosphorylation of Akt and Erk in H9c2 cells; assay: Western blot analysis of phosphorylation of Akt and Erk in H9c2 cardiac cells stimulated with insulin; assay type: cell-based; details: vector control H9c2 cells, indicated doses of insulin, FIG. 17A
Procedure: FIGS. 17A-17B: H9c2 cardiac cells stably expressing ALCAT1 or vector control were stimulated with indicated doses of insulin (FIG. 17A) or with 100 nM of T3 for the indicated time (FIG. 17B), followed by analysis of phosphorylation of Akt, Erk, S6K1, and 4E-BP by western blot analysis using β-actin as an internal control. FIG. 17C: WT and KO mice were treated with vehicle or T4 for 28 days, followed by Western blot analysis of phosphorylation of Akt, GSK3α/β, and 4E-BP in cardiomyocytes by Western blot analysis using GAPDH as an internal control.
Oxidative Stress by ALCAT1 Regulates Akt-mTOR Signal Transduction Pathways in Cardiomyopathy: Hyperthyroidism leads to cardiomyopathy by stimulating protein synthesis in the cardiomyocytes. To identify molecular mechanisms underlying a role of ALCAT1 in hypertrophic growth, the effects of ALCAT1 overexpression and deficiency were analyzed on signal transduction pathways involved in cellular growth and proliferation, including phosphorylation of Akt, Erk, S6K, and 4E-BP1, in H9c2 cells and in mice with hyperthyroidism. Increased ROS levels lead to insulin resistance which plays a causative role in cardiac dysfunction. […] In support of the findings in H9c2 cells, short term treatment of mice with thyroid hormone stimulated cardiac Akt-mTOR phosphorylation in both ALCAT1 knockout mice and the WT mice (FIG. 20).

`c1ccc2c(c1)[I+]c1ccccc1-2` [DPI, diphenyleneiodonium] was tested, and the “loss of MFN expression in response to H2O2” value ([1]; C2C12-A1 cells (stably expressing ALCAT1) pre-incubated with DPI (0, 1M, and 5M) prior to 1.5 mM H2O2, FIG. 7G) was “dose-dependently prevented the loss of MFN expression”.
With `OO` [H2O2, Hydrogen Peroxide] the “MFN1 and MFN2 expression” value ([1]; vector control C2C12 cells, increasing doses of H2O2, FIG. 7F) was “dose-dependently depleted MFN1 and MFN2 expression”.
For “insulin: hormone used to stimulate Akt and Erk phosphorylation in H9c2 cells”, the “phosphorylation of Akt and Erk” value [2] was “dose-dependently stimulated phosphorylation of Akt and Erk”.
